In patent US20190240297A1, “TREATMENT OF INFLAMMATORY BOWEL DISEASE” (UNIVERSITÉ LAVAL, priority 2016, published 2019):
Values belong to the molecule of their own block, whether it stands above or below them.

How the values were obtained:
IEC monolayers = test: In vitro intestinal permeability assay (FITC-dextran) on DSS-treated IEC monolayers; assay type: cell-based, mouse; details: WT and Entpd8-/- IEC, DSS 3% 24 hours; 10 μM added 6 hours after DSS for last 18 hours (FIG. 14A)
Description: (§1) Human colon pieces were recuperated and washed several times with D-PBS containing Fetal Bovine Serum (FBS), antibiotics, antifungal and gentamycin until the solution is clear. Epithelial unit containing stem cells (crypts) were isolated from human samples (as prepared above) or from the intestine of 10-12 weeks old mice by dissection and dissociated with collagenase type I (collagenase XI, DTT and dispase for human). Briefly, the longitudinal muscle layer from the colons were excised, washed with ice-cold Mg^2+ and Ca^2+ free Salt Solution (PBS) and then digested with 75 U/mL collagenase type I or collagenase XI. The digestion was stopped with Dulbecco's Modified Eagles Medium (DMEM/F12) containing 10% v/v foetal bovine serum (FBS). L-glutamine, Hepes. […]
(§2) In other experiments, murine IEC were grown on permeable supports, stimulated on the apical chamber with DSS 3% for 6 hours then the P2Y6 antagonist MRS 2578 (10 μM) was added for the following 18 hours. The supernatant from basolateral chamber was collected and KC secretion was evaluated by Elisa.
Intestinal permeability was assessed with fluorescein-labeled dextran (FITC-dextran) as described previously with some modification (Ashleigh Hansen 2013). […] 4 hours later, samples were taken from the bottom chambers and fluorescence intensity in the samples was measured. Data were expressed as total quantity of dextran-FITC in supernatant.

DSS-induced colitis [1] = test: DSS-induced acute colitis, disease activity index (DAI) after intrarectal injection; assay type: in vivo, mouse
Protocol: (§3) All mice were treated or not (control mice) with 3% (w/v) DSS (molecular weight: 42 kDa) added to the drinking water for 7 days. Disease activity index (DAI) was evaluated daily by scoring percent of weight loss, intestinal bleeding (no blood, presence of blood), and stool consistency (normal stool, loose stool, or diarrhea) as previously described (Berberat P, 2005). For intrarectal injection mice were anesthetized and stool that may be present in distal colon was removed with pressure by fingertips to the posterior end of the animal. A 5F infant feeding tube catheter was inserted 4 cm (measured from the midway point between the 2 catheter side ports) into the colon. At this point, 100 μL of P2Y6 antagonist (MRS 2578 CAS number 711019-86-2, 10 μM), apyrase (4 Units/mice) or their vehicles DMSO or PBS respectively was administered slowly. Following the injection of the solution, animals were positioned head-down for 90 sec to avoid loss of the injected solution. Mice were euthanized 8 hr after the last intrarectal injection, tissue and plasma were isolated for experimental outcomes.

DSS-induced colitis [2] = test: In vivo intestinal permeability assay (FITC-dextran flux from intestine to plasma) in DSS-treated mice; set-up: species or system mouse
Protocol: as §3, with “For” for “All mice were treated or not (control mice) with 3% (w/v) DSS (molecular weight: 42 kDa) added to the drinking water for 7 days. Disease activity index (DAI) was evaluated daily by scoring percent of weight loss, intestinal bleeding (no blood, presence of blood), and stool consistency (normal stool, loose stool, or diarrhea) as previously described (Berberat P, 2005). For”
Intestinal permeability was assessed with fluorescein-labeled dextran (FITC-dextran) as described previously with some modification (Ashleigh Hansen, 2013). All mice were administrated by oral gavage with FITC-dextran (60 mg/[…] of mouse) 4 h after the intrarectal injection of MRS 2578, apyrase or vehicle (DMSO or PBS). Another 4 hours later, mice were euthanized and whole blood was obtained by cardiac puncture. Plasma was isolated and the movement of FITC-flux from colonic lumen into the plasma was measured by fluorometry at 488 nm. Data are expressed as total quantity of dextran-FITC in 100 μl of plasma.

IEC = test: KC secretion by DSS-treated IEC (ELISA of basolateral supernatant); assay type: cell-based, mouse; details: WT and Entpd8-/- IEC, DSS 3% 24 hours; 10 μM added 6 hours after DSS for last 18 hours (FIG. 14B)
Description: as §1, with “Hepes. N-2 supplement, B-27 supplement and antibiotics. The digestion mixture was filtered with 70 μm filter and the effluent was centrifuged twice at 50×g for 5 min at 4° C.” for “Hepes.”
as §2, with “Elisa. […]” for “Elisa.”

P2Y6 receptor [3] = biological target: T1, P2Y6 receptor (Mus musculus, UniProt Q9ERK9); test: UDP stimulation of murine differentiated IEC, KC expression by qPCR; assay type: cell-based; details: 100 μM for 5 hours (FIG. 13A)
T1 construct: endogenous in cells; host or cells: primary differentiated intestinal epithelial cells from colon crypts of WT and Entpd8-/- mice
T1 sequence (Q9ERK9 whole entry): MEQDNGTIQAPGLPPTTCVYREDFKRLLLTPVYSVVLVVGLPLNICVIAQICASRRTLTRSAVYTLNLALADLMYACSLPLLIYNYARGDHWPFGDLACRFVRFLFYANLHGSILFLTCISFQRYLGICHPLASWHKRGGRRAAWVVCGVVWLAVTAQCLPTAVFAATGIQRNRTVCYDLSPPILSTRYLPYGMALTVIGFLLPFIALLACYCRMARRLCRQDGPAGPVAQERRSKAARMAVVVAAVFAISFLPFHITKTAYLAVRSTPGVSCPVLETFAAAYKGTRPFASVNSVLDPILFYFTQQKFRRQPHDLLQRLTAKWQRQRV
Description: as §1, with “Hepes. N-2 supplement, B-27 supplement and antibiotics. The digestion mixture was filtered with 70 μm filter and the effluent was centrifuged twice at 50×g for 5 min at 4° C.” for “Hepes.”
(§4) Murine and human differentiated IEC were grown on plates and stimulated with UDP (100 μM) for 5 hours then the expression of KC (for mouse) and CXCL8 (for human) were evaluated by qPCR.
(§5) Genomic DNA was extracted from the tail of WT and Entpd8^−/− mice using Direct PCR Lysis Reagent to perform PCR using specific primers for NTPDase8 gene and neomycin as mentioned above. […] Primer sequences for cytokine analysed were purchased from Qiagen.

P2Y6 receptor [4] = biological target: T2, P2Y6 receptor (Homo sapiens, UniProt Q15077); test: UDP stimulation of human differentiated IEC, CXCL8 expression by qPCR; assay type: cell-based; details: 100 μM for 5 hours, 1 patient (FIG. 13B)
T2 construct: endogenous in cells; host or cells: primary differentiated intestinal epithelial cells from human colon crypts (1 patient)
T2 sequence (Q15077 whole entry): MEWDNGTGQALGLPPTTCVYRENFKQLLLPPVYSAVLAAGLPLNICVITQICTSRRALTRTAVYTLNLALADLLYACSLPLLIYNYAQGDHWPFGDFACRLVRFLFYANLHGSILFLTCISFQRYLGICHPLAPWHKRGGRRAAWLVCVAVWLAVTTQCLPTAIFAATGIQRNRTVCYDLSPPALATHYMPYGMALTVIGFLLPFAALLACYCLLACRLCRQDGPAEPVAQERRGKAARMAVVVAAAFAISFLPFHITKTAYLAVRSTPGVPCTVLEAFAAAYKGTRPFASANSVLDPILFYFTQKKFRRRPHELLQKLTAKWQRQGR
Description: as §1, with “Hepes. N-2 supplement, B-27 supplement and antibiotics. The digestion mixture was filtered with 70 μm filter and the effluent was centrifuged twice at 50×g for 5 min at 4° C.” for “Hepes.”
as §4, §5

Molecule: S=C=Nc1cccc(NC(=S)NCCCCNC(=S)Nc2cccc(N=C=S)c2)c1 [MRS 2578]
- Epithelial permeability (FITC-dextran in basolateral chamber) (IEC monolayers): decreasing epithelial permeability
- Disease activity index (DAI) / inflammation (DSS-induced colitis [1]; Entpd8-/- mice, 3% DSS 7 days, 10 μM intrarectally daily day 2 to day 7, vs DSS alone (FIG. 10A)): reduced inflammation and the DAI
- Disease activity index (DAI) / inflammation (DSS-induced colitis [1]; WT mice, 3% DSS 7 days, 10 μM intrarectally daily day 2 to day 7, vs DSS alone (FIG. 10C)): reduced inflammation and the DAI
- Intestinal permeability, FITC-dextran flux from intestine to plasma (DSS-induced colitis [2]; Entpd8-/- and WT mice, day 7, 10 μM intrarectally day 2 to day 7 (FIG. 10B, D)): significantly ameliorated the permeability
- KC (chemokine) secretion (IEC): decreasing epithelial permeability and chemokines secretion

- KC expression (mRNA) (P2Y6 receptor [3]): significant increase
- CXCL8 expression (mRNA) (P2Y6 receptor [4]): significant increase
Molecule: O=c1ccn([C@@H]2O[C@H](COP(=O)(O)OP(=O)(O)O)[C@@H](O)[C@H]2O)c(=O)[nH]1 [UDP]

Molecule: apyrase
- Protection from colitis as determined by DAI (DSS-induced colitis [1]; WT mice, DSS, 4 U/mice intrarectally daily day 2 to day 7, vs PBS (FIG. 11A)): fully protected
- Disease activity index (DAI) / inflammation (DSS-induced colitis [1]; WT mice, DSS, 4 U/mice intrarectally in late phase, day 5 to day 7, vs PBS (FIG. 11C)): reduced inflammation
- Protection from colitis as determined by permeability measurements (DSS-induced colitis [2]; WT mice, 4 U/mice intrarectally daily day 2 to day 7, vs PBS (FIG. 11B)): fully protected
